The text below walks through data of article PMC6662706, “Short amylin receptor antagonist peptides improve memory deficits in Alzheimer’s disease mouse model” (Scientific Reports, 2019).

No end group written: not given here.

Data set [1] can be described thus: Ex vivo NIR fluorescence brain imaging after ip injection (brain penetration). It is filed as in vivo, mouse. As to conditions: wild-type mice, 0, 0.6, 2, 10, 20 mg/kg single ip dose, 2 h, n = 3 per dose. An excerpt:
Blood brain barrier (BBB) penetration can limit the potential of long sequence peptides as therapeutic agents in central nervous system (CNS). Previously, we have reported that a cyclized form of AC253 peptide and to a lesser degree its linear form can both penetrate the BBB at therapeutically relevant levels, and are localized to the hippocampus and cortex, regions relevant to memory and learning processes. Therefore, we examined the ability of Cy5.5 labeled peptide fragments (R5, and R14) to penetrate BBB in wild-type mice using NIR fluorescence ex vivo brain imaging. Brain fluorescence resulting from either R5 or R14 was assessed against full length AC253 2 h after a single intraperitoneal (ip) injection of peptides. […] Fluorescence signals were distributed throughout the cortex, but particularly strong within the hippocampal regions, where a very high density of amylin receptor expression has been reported. […]
In vivo brain penetration and pharmacokinetics of the peptides were determined in 6-month-old male or female wild-type (C57BL/6 background) and heterozygous CTR mice (het-CTR). […]
For ex vivo imaging experiments and peptide brain uptake, we used age matched 6-month-old wild-type littermate (C57BL/6 background) mice. […] Region of interest was drawn around the brain region and analyzed using the Kodak ID 3.6 software and the mean fluorescence intensity was recorded. […]

Data set [2] in a line: Brain uptake of R5 compared with davalintide, wild-type and het CTR mice. It is filed as in vivo, mouse. As to conditions: mouse, not told, ip. The protocol:
For peptide R5 brain uptake in comparison to Davlintide, wild-type littermate (C57BL/6 background) mice and heterozygous CTR knockdown mice (50% CTR expression level compared to wild type control mice and presumably with 50% AMY receptor expression level) was used (n=5 in each group). Mouse brains were extracted after 2h from a single injection and fluorescence in brains was quantified as mentioned above.
Supplementary Figure S3: The comparison of brain permeability for R5 and Davalintide.

For SQELHRLQTYPR-NH2 [R5], the “accumulation in the brain at increasing dose” value in data set [1] is on record as “dose-dependent”. In addition, the “brain permeability, R5 versus davalintide” value in data set [2] is reported as “greater brain permeability”.
